Source: the supplement of paper PMC10307832

Key:
Test in all cases: relative viability (nuclei count vs DMSO), 5 days (fraction); higher = more cells survive
Tozasertib = compound: Cc1cc(Nc2cc(N3CCN(C)CC3)nc(Sc3ccc(NC(=O)C4CC4)cc3)n2)n[nH]1 [Tozasertib]
Method in brief: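 Viability is treated-well nuclei as a fraction of vehicle-well nuclei, reported as the median across plates. Before counting, lung cancer cell lines were kept overnight at 37 °C in 1536-well plates, pinned with five √10-spaced library-drug doses on vehicle-anchored plates, and left 5 days without medium change, then fixed, permeabilised and Hoechst-stained in one step, imaged at 4× and counted by MetaXpress. A plate passed only if control CV was below 25% and at least one doubling occurred.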

Tozasertib + Trametinib = compound: Cc1cc(Nc2cc(N3CCN(C)CC3)nc(Sc3ccc(NC(=O)C4CC4)cc3)n2)n[nH]1 [Tozasertib] + CC(=O)Nc1cccc(-n2c(=O)n(C3CC3)c(=O)c3c(Nc4ccc(I)cc4F)n(C)c(=O)c(C)c32)c1 [Trametinib] (partner 0.02 µM)
Method in brief: (§1)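 Nuclei were stained with Hoechst during a one-step fixation (final 0.05% Triton X-100, 1% formaldehyde, 1 ug/ml Hoechst) carried out 5 days after dosing, then counted on 4× images. The cells, lung cancer lines in 1536-well plates, had been dosed by pin tool the day after seeding with one drug alone or a fixed anchor-drug dose plus five library-drug doses (not always all listed) in √10 steps. Relative viability is the nuclei count in treated wells divided by that in vehicle wells, and each value is the median of duplicate plates.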

Tozasertib + Palbociclib = compound: Cc1cc(Nc2cc(N3CCN(C)CC3)nc(Sc3ccc(NC(=O)C4CC4)cc3)n2)n[nH]1 [Tozasertib] + CC(=O)c1c(C)c2cnc(Nc3ccc(N4CCNCC4)cn3)nc2n(C2CCCC2)c1=O [Palbociclib] (partner 0.5 µM)
Method in brief: as §1

Tozasertib + OSI-027 = compound: Cc1cc(Nc2cc(N3CCN(C)CC3)nc(Sc3ccc(NC(=O)C4CC4)cc3)n2)n[nH]1 [Tozasertib] + COc1cccc2cc(-c3nc([C@H]4CC[C@H](C(=O)O)CC4)n4ncnc(N)c34)[nH]c12 [OSI-027] (partner 0.5 µM)
Method in brief: as §1

Tozasertib + AZD7762 = compound: Cc1cc(Nc2cc(N3CCN(C)CC3)nc(Sc3ccc(NC(=O)C4CC4)cc3)n2)n[nH]1 [Tozasertib] + NC(=O)Nc1cc(-c2cccc(F)c2)sc1C(=O)N[C@H]1CCCNC1 [AZD7762] (partner 0.2 µM)
Method in brief: as §1

Tozasertib + Pemetrexed = compound: Cc1cc(Nc2cc(N3CCN(C)CC3)nc(Sc3ccc(NC(=O)C4CC4)cc3)n2)n[nH]1 [Tozasertib] + Nc1nc2[nH]cc(CCc3ccc(C(=O)N[C@@H](CCC(=O)O)C(=O)O)cc3)c2c(=O)[nH]1 [Pemetrexed] (partner 0.2 µM)
Method in brief: as §1

Tozasertib + Decitabine = compound: Cc1cc(Nc2cc(N3CCN(C)CC3)nc(Sc3ccc(NC(=O)C4CC4)cc3)n2)n[nH]1 [Tozasertib] + Nc1ncn([C@H]2C[C@H](O)[C@@H](CO)O2)c(=O)n1 [Decitabine] (partner 2 µM)
Method in brief: as §1

Tozasertib + Vorinostat = compound: Cc1cc(Nc2cc(N3CCN(C)CC3)nc(Sc3ccc(NC(=O)C4CC4)cc3)n2)n[nH]1 [Tozasertib] + O=C(CCCCCCC(=O)Nc1ccccc1)NO [Vorinostat] (partner 1 µM)
Method in brief: as §1

Tozasertib + Olaparib = compound: Cc1cc(Nc2cc(N3CCN(C)CC3)nc(Sc3ccc(NC(=O)C4CC4)cc3)n2)n[nH]1 [Tozasertib] + O=C(c1cc(Cc2n[nH]c(=O)c3ccccc23)ccc1F)N1CCN(C(=O)C2CC2)CC1 [Olaparib] (partner 8 µM)
Method in brief: as §1

Tozasertib + Luminespib = compound: Cc1cc(Nc2cc(N3CCN(C)CC3)nc(Sc3ccc(NC(=O)C4CC4)cc3)n2)n[nH]1 [Tozasertib] + CCNC(=O)c1noc(-c2cc(C(C)C)c(O)cc2O)c1-c1ccc(CN2CCOCC2)cc1 [Luminespib] (partner 0.01 µM)
Method in brief: as §1

Tozasertib + Foretinib = compound: Cc1cc(Nc2cc(N3CCN(C)CC3)nc(Sc3ccc(NC(=O)C4CC4)cc3)n2)n[nH]1 [Tozasertib] + COc1cc2c(Oc3ccc(NC(=O)C4(C(=O)Nc5ccc(F)cc5)CC4)cc3F)ccnc2cc1OCCCN1CCOCC1 [Foretinib] (partner 0.25 µM)
Method in brief: as §1

Tozasertib + Dasatinib = compound: Cc1cc(Nc2cc(N3CCN(C)CC3)nc(Sc3ccc(NC(=O)C4CC4)cc3)n2)n[nH]1 [Tozasertib] + Cc1nc(Nc2ncc(C(=O)Nc3c(C)cccc3Cl)s2)cc(N2CCN(CCO)CC2)n1 [Dasatinib] (partner 0.075 µM)
Method in brief: as §1

Tozasertib + Phenformin = compound: Cc1cc(Nc2cc(N3CCN(C)CC3)nc(Sc3ccc(NC(=O)C4CC4)cc3)n2)n[nH]1 [Tozasertib] + N=C(N)NC(=N)NCCc1ccccc1 [Phenformin] (partner 250 µM)
Method in brief: as §1

Tozasertib + Bortezomib = compound: Cc1cc(Nc2cc(N3CCN(C)CC3)nc(Sc3ccc(NC(=O)C4CC4)cc3)n2)n[nH]1 [Tozasertib] + CC(C)C[C@H](NC(=O)[C@H](Cc1ccccc1)NC(=O)c1cnccn1)B(O)O [Bortezomib] (partner 0.002 µM)
Method in brief: as §1

Tozasertib + Navitoclax = compound: Cc1cc(Nc2cc(N3CCN(C)CC3)nc(Sc3ccc(NC(=O)C4CC4)cc3)n2)n[nH]1 [Tozasertib] + CC1(C)CCC(c2ccc(Cl)cc2)=C(CN2CCN(c3ccc(C(=O)NS(=O)(=O)c4ccc(N[C@H](CCN5CCOCC5)CSc5ccccc5)c(S(=O)(=O)C(F)(F)F)c4)cc3)CC2)C1 [Navitoclax] (partner 0.5 µM)
Method in brief: as §1

Tozasertib + Lapatinib = compound: Cc1cc(Nc2cc(N3CCN(C)CC3)nc(Sc3ccc(NC(=O)C4CC4)cc3)n2)n[nH]1 [Tozasertib] + CS(=O)(=O)CCNCc1ccc(-c2ccc3ncnc(Nc4ccc(OCc5cccc(F)c5)c(Cl)c4)c3c2)o1 [Lapatinib] (partner 2 µM)
Method in brief: as §1

Tozasertib + Pictilisib = compound: Cc1cc(Nc2cc(N3CCN(C)CC3)nc(Sc3ccc(NC(=O)C4CC4)cc3)n2)n[nH]1 [Tozasertib] + CS(=O)(=O)N1CCN(Cc2cc3nc(-c4cccc5[nH]ncc45)nc(N4CCOCC4)c3s2)CC1 [Pictilisib] (partner 1 µM)
Method in brief: as §1

Tozasertib + Crizotinib = compound: Cc1cc(Nc2cc(N3CCN(C)CC3)nc(Sc3ccc(NC(=O)C4CC4)cc3)n2)n[nH]1 [Tozasertib] + C[C@@H](Oc1cc(-c2cnn(C3CCNCC3)c2)cnc1N)c1c(Cl)ccc(F)c1Cl [Crizotinib] (partner 1 µM)
Method in brief: as §1

Tozasertib + Linsitinib = compound: Cc1cc(Nc2cc(N3CCN(C)CC3)nc(Sc3ccc(NC(=O)C4CC4)cc3)n2)n[nH]1 [Tozasertib] + C[C@]1(O)C[C@@H](c2nc(-c3ccc4ccc(-c5ccccc5)nc4c3)c3c(N)nccn32)C1 [Linsitinib] (partner 1 µM)
Method in brief: as §1

Tozasertib + Alpelisib = compound: Cc1cc(Nc2cc(N3CCN(C)CC3)nc(Sc3ccc(NC(=O)C4CC4)cc3)n2)n[nH]1 [Tozasertib] + Cc1nc(NC(=O)N2CCC[C@H]2C(N)=O)sc1-c1ccnc(C(C)(C)C(F)(F)F)c1 [Alpelisib] (partner 2 µM)
Method in brief: as §1

NCI-H1648
relative viability (Tozasertib; 0.01265 µM): 0.779 | relative viability (Tozasertib; 0.04 µM): 0.743 | relative viability (Tozasertib; 0.1 µM, anchor plate): 0.497 | relative viability (Tozasertib; 0.1265 µM): 0.79 | relative viability (Tozasertib + Trametinib; first compound 0.004 µM): 0.488 | relative viability (Tozasertib + Trametinib; first compound 0.01265 µM): 0.444 | relative viability (Tozasertib + Trametinib; first compound 0.04 µM): 0.425 | relative viability (Tozasertib + Trametinib; first compound 0.1265 µM): 0.41 | relative viability (Tozasertib + Palbociclib; first compound 0.004 µM): 0.279 | relative viability (Tozasertib + Palbociclib; first compound 0.01265 µM): 0.304 | relative viability (Tozasertib + Palbociclib; first compound 0.04 µM): 0.276 | relative viability (Tozasertib + Palbociclib; first compound 0.1265 µM): 0.255 | relative viability (Tozasertib + OSI-027; first compound 0.1265 µM): 0.237 | relative viability (Tozasertib + AZD7762; first compound 0.004 µM): 0.717 | relative viability (Tozasertib + AZD7762; first compound 0.01265 µM): 0.619 | relative viability (Tozasertib + AZD7762; first compound 0.04 µM): 0.596 | relative viability (Tozasertib + AZD7762; first compound 0.1265 µM): 0.393 | relative viability (Tozasertib + Pemetrexed; first compound 0.004 µM): 0.891 | relative viability (Tozasertib + Pemetrexed; first compound 0.01265 µM): 0.665 | relative viability (Tozasertib + Pemetrexed; first compound 0.04 µM): 0.773 | relative viability (Tozasertib + Pemetrexed; first compound 0.1265 µM): 0.615 | relative viability (Tozasertib + Decitabine; first compound 0.004 µM): 0.461 | relative viability (Tozasertib + Decitabine; first compound 0.01265 µM): 0.461 | relative viability (Tozasertib + Decitabine; first compound 0.04 µM): 0.383 | relative viability (Tozasertib + Decitabine; first compound 0.1265 µM): 0.401 | relative viability (Tozasertib + Vorinostat; first compound 0.004 µM): 0.42 | relative viability (Tozasertib + Vorinostat; first compound 0.01265 µM): 0.296 | relative viability (Tozasertib + Vorinostat; first compound 0.04 µM): 0.425 | relative viability (Tozasertib + Vorinostat; first compound 0.1265 µM): 0.379 | relative viability (Tozasertib + Olaparib; first compound 0.004 µM): 1.64 | relative viability (Tozasertib + Olaparib; first compound 0.01265 µM): 0.767 | relative viability (Tozasertib + Olaparib; first compound 0.04 µM): 0.844 | relative viability (Tozasertib + Olaparib; first compound 0.1265 µM): 0.531

NCI-H1623
relative viability (Tozasertib; 0.004 µM): 0.859 | relative viability (Tozasertib; 0.01265 µM): 0.965 | relative viability (Tozasertib; 0.04 µM): 0.966 | relative viability (Tozasertib; 0.1 µM, anchor plate): 0.434 | relative viability (Tozasertib; 0.1265 µM): 0.929 | relative viability (Tozasertib + Luminespib; first compound 0.004 µM): 0.43 | relative viability (Tozasertib + Luminespib; first compound 0.04 µM): 0.473 | relative viability (Tozasertib + Luminespib; first compound 0.1265 µM): 0.505 | relative viability (Tozasertib + Foretinib; first compound 0.004 µM): 0.781 | relative viability (Tozasertib + Foretinib; first compound 0.01265 µM): 0.829 | relative viability (Tozasertib + Foretinib; first compound 0.04 µM): 0.898 | relative viability (Tozasertib + Foretinib; first compound 0.1265 µM): 0.761 | relative viability (Tozasertib + OSI-027; first compound 0.004 µM): 0.45 | relative viability (Tozasertib + OSI-027; first compound 0.01265 µM): 0.428 | relative viability (Tozasertib + OSI-027; first compound 0.04 µM): 0.487 | relative viability (Tozasertib + OSI-027; first compound 0.1265 µM): 0.453 | relative viability (Tozasertib + Dasatinib; first compound 0.004 µM): 0.549 | relative viability (Tozasertib + Dasatinib; first compound 0.01265 µM): 0.515 | relative viability (Tozasertib + Dasatinib; first compound 0.04 µM): 0.536 | relative viability (Tozasertib + Dasatinib; first compound 0.1265 µM): 0.556 | relative viability (Tozasertib + Phenformin; first compound 0.004 µM): 0.552 | relative viability (Tozasertib + Phenformin; first compound 0.01265 µM): 0.541 | relative viability (Tozasertib + Phenformin; first compound 0.04 µM): 0.583 | relative viability (Tozasertib + Phenformin; first compound 0.1265 µM): 0.526

Calu-6
relative viability (Tozasertib; 0.004 µM): 1.06 | relative viability (Tozasertib; 0.01265 µM): 0.953 | relative viability (Tozasertib; 0.04 µM): 0.998 | relative viability (Tozasertib; 0.1265 µM): 0.546 | relative viability (Tozasertib + Bortezomib; first compound 0.004 µM): 0.987 | relative viability (Tozasertib + Bortezomib; first compound 0.01265 µM): 1.03 | relative viability (Tozasertib + Bortezomib; first compound 0.04 µM): 1.08 | relative viability (Tozasertib + Bortezomib; first compound 0.1265 µM): 0.391 | relative viability (Tozasertib + Navitoclax; first compound 0.004 µM): 0.85 | relative viability (Tozasertib + Navitoclax; first compound 0.01265 µM): 0.88 | relative viability (Tozasertib + Navitoclax; first compound 0.04 µM): 0.779 | relative viability (Tozasertib + Navitoclax; first compound 0.1265 µM): 0.153 | relative viability (Tozasertib + Foretinib; first compound 0.004 µM): 0.946 | relative viability (Tozasertib + Foretinib; first compound 0.01265 µM): 0.903 | relative viability (Tozasertib + Foretinib; first compound 0.04 µM): 0.69 | relative viability (Tozasertib + Foretinib; first compound 0.1265 µM): 0.229 | relative viability (Tozasertib + Lapatinib; first compound 0.004 µM): 1.17 | relative viability (Tozasertib + Lapatinib; first compound 0.01265 µM): 0.983 | relative viability (Tozasertib + Lapatinib; first compound 0.04 µM): 1.08 | relative viability (Tozasertib + Lapatinib; first compound 0.1265 µM): 0.293 | relative viability (Tozasertib + Pictilisib; first compound 0.004 µM): 0.946 | relative viability (Tozasertib + Pictilisib; first compound 0.01265 µM): 0.862 | relative viability (Tozasertib + Pictilisib; first compound 0.04 µM): 0.781 | relative viability (Tozasertib + Pictilisib; first compound 0.1265 µM): 0.259 | relative viability (Tozasertib + Crizotinib; first compound 0.004 µM): 0.796 | relative viability (Tozasertib + Crizotinib; first compound 0.04 µM): 0.433 | relative viability (Tozasertib + Crizotinib; first compound 0.1265 µM): 0.265 | relative viability (Tozasertib + Linsitinib; first compound 0.004 µM): 0.952 | relative viability (Tozasertib + Linsitinib; first compound 0.01265 µM): 0.853 | relative viability (Tozasertib + Linsitinib; first compound 0.04 µM): 1 | relative viability (Tozasertib + Linsitinib; first compound 0.1265 µM): 0.309 | relative viability (Tozasertib + Alpelisib; first compound 0.004 µM): 1.19 | relative viability (Tozasertib + Alpelisib; first compound 0.01265 µM): 0.96 | relative viability (Tozasertib + Alpelisib; first compound 0.04 µM): 0.797 | relative viability (Tozasertib + Alpelisib; first compound 0.1265 µM): 0.402 | relative viability (Tozasertib + Olaparib; first compound 0.004 µM): 0.557 | relative viability (Tozasertib + Olaparib; first compound 0.01265 µM): 0.516 | relative viability (Tozasertib + Olaparib; first compound 0.04 µM): 0.595 | relative viability (Tozasertib + Olaparib; first compound 0.1265 µM): 0.293
